Experimental data reported in patent publication US20150218654A1, “METHODS FOR PREDICTING MULTIPLE MYELOMA TREATMENT RESPONSE” (INSERM (INSTITUT NATIONAL DE LA SANTÉ ET DE LA RE- CHERCHE …, priority 2012, published 2015).
Like-named read-outs stand apart in the source and are kept apart here.

Tests used:
[1] = system: human myeloma cell lines (HMCLs); assay: Growth assay for myeloma cells (Cell Titer Glo, 4 days, graded DNMTi concentrations); type: cell-based; details: for IC50: Homo sapiens, 5-azacitidine
Description: HMCLs were cultured for 4 days in 96-well flat-bottom microtiter plates in RPMI 1640 medium, 10% FCS, 2 ng/ml IL-6 culture medium (control), with graded decitabine concentrations. Data are mean values plus or minus standard deviation (SD) of 5 experiments determined on sextuplet culture wells.
HMCLs were cultured for 4 days in 96-well flat-bottom microtiter plates in RPMI 1640 medium, 10% FCS, 2 ng/ml IL-6 culture medium (control), and graded 5-azacitidine concentrations. Data are mean values plus or minus standard deviation (SD) of 5 experiments determined on sextuplet culture wells.
HMCLs were cultured for 4 days in 96-well flat-bottom microtiter plates in RPMI 1640 medium, 10% FCS, 2 ng/ml IL-6 culture medium (control), with graded decitabine concentrations. Cell growth was evaluated by quantifying intracellular ATP amount with a Cell Titer Glo Luminescent Assay (Promega, Madison, Wis.) with a Centro LB 960 luminometer (Berthold Technologies, Bad Wildbad, Germany).
The inventors sought to determine whether DM Score could predict for the sensitivity of 10 HMCLs to DNMT inhibitor. Starting from a large cohort of 40 HMCLs (22), the 10 HMCLs with the highest or lowest DM Score were selected to assay decitabine sensitivity.
HMCLs were cultured with graded 5-azacitidine (Sigma, St. Louis, Mo.) concentrations. HMCLs cell growth was quantified with a Cell Titer Glo Luminescent Assay (Promega, Madison, Wis.) and half inhibitory concentration (IC50) was determined using GraphPad Prism (http://www.graphpad.com/scientific-software/prism/).

[2] = system: primary myeloma cells of patients (CD138+ viable plasma cells); assay: Mononuclear cell culture of patients' tumor samples, count of viable CD138+ myeloma cells by flow cytometry; type: cell-based, human; details: primary MMCs of high DM Score patients (N=7) versus low DM Score patients (N=7), P<0.05
Description: Mononuclear cells from tumor samples of 12 patients with MM were cultured for 4 days in the presence of IL-6 (2 ng/ml) with or without graded decitabine concentrations. At day 4 of culture, the cell count and the viability were determined and the percentage of CD138^+ viable plasma cells was determined by flow cytometry. Black color represents patients with high DM Score (N=6) and white represents patients with low DM Score values (N=6).
Mononuclear cells from tumor samples of 14 patients with MM were cultured for 4 days in the presence of IL-6 (2 ng/ml) with or without graded 5-azacitidine concentrations. At day 4 of culture, the count of viable CD138′ MMCs was determined using flow cytometry. The black columns represent the mean±SD of primary myeloma cell counts (expressed as the percentage of the count without adding 5-azcytidine) of the 7 patients with a low DM Score and the white columns that of the 7 patients with a high DM Score.
Mononuclear cells from tumor samples of 12 patients with MM (agreement of the Center for Biological Resources of Montpellier University Hospital (N° DC-2008-417)) were cultured for 4 days at 2×10^5 cells/ml in RPMI 1640 medium, 10% FCS, 2 ng/ml IL-6, with or without graded concentrations of decitabine. In each culture group, viability and cell counts were assayed and MMCs were stained with an anti-CD138-PE mAb (Immunotech, Marseille, France) as previously described (32).
Primary myeloma cells of 14 patients were cultured with or without graded concentrations of 5-azacitidine and MMC cytotoxicity evaluated using anti-CD138-PE mAb (Immunotech, Marseille, France) as described (Jourdan, et al 1998; Mahtouk, et al 2004; Moreaux, et al 2012).

Nc1ncn([C@@H]2O[C@H](CO)[C@@H](O)[C@H]2O)c(=O)n1 [5-azacitidine, 5-Azacytidine]
fold higher 5-azacitidine sensitivity ([1]; HMCLs with high DM Score versus low DM Score, P=0.01): 3 fold
IC50 ([1]; 6 HMCLs with high DM Score, read-out: IC50 range): 1.12 to 8.25 µM
IC50 ([1]; 6 HMCLs with high DM Score, read-out: median IC50): 2.43 µM
IC50 ([1]; 6 HMCLs with low DM Score, read-out: IC50 range): 5.73 to 27.9 µM
IC50 ([1]; 6 HMCLs with low DM Score, read-out: median IC50): 7.45 µM
fold higher 5-azacytidine sensitivity [2]: 1.6 fold
